Measurements as given in publication doi:10.1101/2023.03.24.534094v2 (biorxiv, 2023).
Where two headings read alike, the source gives them in different places. Each block holds one molecule with its values, some of them ahead of it.

What was measured:
Assay in all cases: biochemical
CK2a1 = CK2a1 (Homo sapiens, UniProt P68400)
LOK = LOK (Homo sapiens, UniProt O94804)
CK1d = CK1d (Homo sapiens, UniProt P48730)
JNK1 = JNK1 (Homo sapiens, UniProt P45983)
EpHA2 = EpHA2 (Homo sapiens, UniProt P29317)
MER = molecular target: T1, MER (Homo sapiens, UniProt Q12866)
T1 sequence (Q12866 1-999): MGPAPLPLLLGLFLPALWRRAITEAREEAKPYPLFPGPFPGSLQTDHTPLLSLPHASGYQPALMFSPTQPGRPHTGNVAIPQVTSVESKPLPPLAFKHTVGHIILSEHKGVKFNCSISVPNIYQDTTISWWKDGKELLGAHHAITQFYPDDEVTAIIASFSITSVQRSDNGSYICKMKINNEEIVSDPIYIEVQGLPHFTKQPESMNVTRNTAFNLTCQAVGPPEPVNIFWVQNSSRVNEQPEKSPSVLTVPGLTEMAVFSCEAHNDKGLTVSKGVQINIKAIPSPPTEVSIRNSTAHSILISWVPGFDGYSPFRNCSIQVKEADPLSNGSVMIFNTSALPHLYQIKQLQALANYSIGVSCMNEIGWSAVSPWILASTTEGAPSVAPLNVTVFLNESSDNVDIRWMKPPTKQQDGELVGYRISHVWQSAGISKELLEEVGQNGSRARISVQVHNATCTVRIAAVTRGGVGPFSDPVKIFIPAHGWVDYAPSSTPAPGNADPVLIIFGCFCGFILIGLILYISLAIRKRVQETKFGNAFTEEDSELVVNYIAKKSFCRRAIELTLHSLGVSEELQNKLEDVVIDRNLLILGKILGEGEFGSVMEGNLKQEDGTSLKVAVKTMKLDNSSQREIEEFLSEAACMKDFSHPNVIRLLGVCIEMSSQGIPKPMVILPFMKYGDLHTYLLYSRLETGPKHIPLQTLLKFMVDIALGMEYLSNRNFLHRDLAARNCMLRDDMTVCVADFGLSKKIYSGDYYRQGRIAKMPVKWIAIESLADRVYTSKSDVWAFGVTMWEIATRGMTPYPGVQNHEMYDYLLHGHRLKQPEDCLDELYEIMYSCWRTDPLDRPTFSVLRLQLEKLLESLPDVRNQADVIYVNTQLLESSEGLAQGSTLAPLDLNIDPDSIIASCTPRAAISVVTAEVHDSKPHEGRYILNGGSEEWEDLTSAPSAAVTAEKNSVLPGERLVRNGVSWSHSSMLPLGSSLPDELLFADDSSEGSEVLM

PIM3 = PIM3 (Homo sapiens, UniProt Q86V86)
MAP2K6 = molecular target: T2, MAP2K6 (Homo sapiens, UniProt P52564)
T2 sequence (P52564 1-334): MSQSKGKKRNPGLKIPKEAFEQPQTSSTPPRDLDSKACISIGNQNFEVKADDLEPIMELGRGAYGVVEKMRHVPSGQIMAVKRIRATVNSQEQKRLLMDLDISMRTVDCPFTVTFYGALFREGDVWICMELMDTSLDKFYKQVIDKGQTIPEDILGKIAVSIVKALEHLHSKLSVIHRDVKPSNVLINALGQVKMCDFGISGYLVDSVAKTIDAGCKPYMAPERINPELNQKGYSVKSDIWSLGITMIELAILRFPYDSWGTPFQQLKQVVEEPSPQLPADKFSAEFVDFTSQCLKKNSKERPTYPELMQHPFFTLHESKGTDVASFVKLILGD

DAPK1 = DAPK1 (Homo sapiens, UniProt P53355)
BRD4 = BRD4 (Homo sapiens, UniProt O60885)
CHK2 = CHK2 (Homo sapiens, UniProt O96017)
DAPK3 = DAPK3 (Homo sapiens, UniProt O43293)
EpHA5 = EpHA5 (Homo sapiens, UniProt P54756)
EphA7 = EphA7 (Homo sapiens, UniProt Q15375)
MARK3 = MARK3 (Homo sapiens, UniProt P27448)

EpHA5, sequence (P54756 whole entry): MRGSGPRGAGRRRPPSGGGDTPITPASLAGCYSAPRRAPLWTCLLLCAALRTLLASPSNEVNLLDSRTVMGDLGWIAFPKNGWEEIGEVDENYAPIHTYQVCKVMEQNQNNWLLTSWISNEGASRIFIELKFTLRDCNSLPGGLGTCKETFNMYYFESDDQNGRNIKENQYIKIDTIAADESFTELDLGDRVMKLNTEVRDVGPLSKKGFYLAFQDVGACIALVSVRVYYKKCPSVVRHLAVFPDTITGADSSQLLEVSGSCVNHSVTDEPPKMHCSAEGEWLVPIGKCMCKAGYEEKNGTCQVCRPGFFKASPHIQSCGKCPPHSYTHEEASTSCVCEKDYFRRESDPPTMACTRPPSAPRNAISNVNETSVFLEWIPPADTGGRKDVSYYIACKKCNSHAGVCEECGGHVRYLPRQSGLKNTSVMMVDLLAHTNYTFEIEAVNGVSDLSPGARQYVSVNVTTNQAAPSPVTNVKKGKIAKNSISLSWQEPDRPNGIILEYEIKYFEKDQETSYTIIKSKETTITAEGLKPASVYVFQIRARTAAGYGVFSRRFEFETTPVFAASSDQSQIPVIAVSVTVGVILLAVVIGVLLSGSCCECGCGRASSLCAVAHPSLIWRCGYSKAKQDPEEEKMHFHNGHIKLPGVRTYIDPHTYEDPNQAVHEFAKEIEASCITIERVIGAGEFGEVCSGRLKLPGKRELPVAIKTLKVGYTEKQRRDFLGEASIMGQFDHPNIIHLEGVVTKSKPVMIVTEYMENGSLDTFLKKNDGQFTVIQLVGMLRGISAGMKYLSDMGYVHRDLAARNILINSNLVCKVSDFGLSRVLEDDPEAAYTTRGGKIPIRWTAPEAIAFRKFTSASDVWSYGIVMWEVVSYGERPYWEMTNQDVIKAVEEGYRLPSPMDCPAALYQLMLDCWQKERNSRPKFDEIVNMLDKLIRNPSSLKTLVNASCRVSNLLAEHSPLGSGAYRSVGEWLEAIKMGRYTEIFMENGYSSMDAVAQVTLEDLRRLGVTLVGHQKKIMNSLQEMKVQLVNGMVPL
DAPK3, sequence (O43293 whole entry): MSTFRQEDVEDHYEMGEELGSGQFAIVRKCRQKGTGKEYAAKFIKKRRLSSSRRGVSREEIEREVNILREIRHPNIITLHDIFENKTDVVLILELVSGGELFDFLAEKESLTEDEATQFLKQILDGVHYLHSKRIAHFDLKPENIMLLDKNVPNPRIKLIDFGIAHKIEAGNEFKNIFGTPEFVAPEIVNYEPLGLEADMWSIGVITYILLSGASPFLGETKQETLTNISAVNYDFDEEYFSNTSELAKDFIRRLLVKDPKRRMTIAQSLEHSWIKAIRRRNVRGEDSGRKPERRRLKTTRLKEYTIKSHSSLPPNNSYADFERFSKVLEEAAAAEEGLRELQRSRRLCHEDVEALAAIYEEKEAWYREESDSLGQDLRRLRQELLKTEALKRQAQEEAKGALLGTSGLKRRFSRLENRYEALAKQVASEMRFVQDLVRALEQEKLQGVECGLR
CK2a1, sequence (P68400 whole entry): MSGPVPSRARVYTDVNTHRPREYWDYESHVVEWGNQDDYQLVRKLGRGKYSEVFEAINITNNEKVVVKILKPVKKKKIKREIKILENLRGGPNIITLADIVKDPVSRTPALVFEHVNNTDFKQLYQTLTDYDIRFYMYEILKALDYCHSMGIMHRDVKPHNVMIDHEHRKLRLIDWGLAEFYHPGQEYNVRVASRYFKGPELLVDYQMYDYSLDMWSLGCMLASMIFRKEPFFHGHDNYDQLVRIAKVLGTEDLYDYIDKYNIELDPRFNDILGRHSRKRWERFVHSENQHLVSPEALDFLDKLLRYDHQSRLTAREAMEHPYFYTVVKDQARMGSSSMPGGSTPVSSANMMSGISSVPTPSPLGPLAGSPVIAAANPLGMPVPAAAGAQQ
EphA7, sequence (Q15375 whole entry): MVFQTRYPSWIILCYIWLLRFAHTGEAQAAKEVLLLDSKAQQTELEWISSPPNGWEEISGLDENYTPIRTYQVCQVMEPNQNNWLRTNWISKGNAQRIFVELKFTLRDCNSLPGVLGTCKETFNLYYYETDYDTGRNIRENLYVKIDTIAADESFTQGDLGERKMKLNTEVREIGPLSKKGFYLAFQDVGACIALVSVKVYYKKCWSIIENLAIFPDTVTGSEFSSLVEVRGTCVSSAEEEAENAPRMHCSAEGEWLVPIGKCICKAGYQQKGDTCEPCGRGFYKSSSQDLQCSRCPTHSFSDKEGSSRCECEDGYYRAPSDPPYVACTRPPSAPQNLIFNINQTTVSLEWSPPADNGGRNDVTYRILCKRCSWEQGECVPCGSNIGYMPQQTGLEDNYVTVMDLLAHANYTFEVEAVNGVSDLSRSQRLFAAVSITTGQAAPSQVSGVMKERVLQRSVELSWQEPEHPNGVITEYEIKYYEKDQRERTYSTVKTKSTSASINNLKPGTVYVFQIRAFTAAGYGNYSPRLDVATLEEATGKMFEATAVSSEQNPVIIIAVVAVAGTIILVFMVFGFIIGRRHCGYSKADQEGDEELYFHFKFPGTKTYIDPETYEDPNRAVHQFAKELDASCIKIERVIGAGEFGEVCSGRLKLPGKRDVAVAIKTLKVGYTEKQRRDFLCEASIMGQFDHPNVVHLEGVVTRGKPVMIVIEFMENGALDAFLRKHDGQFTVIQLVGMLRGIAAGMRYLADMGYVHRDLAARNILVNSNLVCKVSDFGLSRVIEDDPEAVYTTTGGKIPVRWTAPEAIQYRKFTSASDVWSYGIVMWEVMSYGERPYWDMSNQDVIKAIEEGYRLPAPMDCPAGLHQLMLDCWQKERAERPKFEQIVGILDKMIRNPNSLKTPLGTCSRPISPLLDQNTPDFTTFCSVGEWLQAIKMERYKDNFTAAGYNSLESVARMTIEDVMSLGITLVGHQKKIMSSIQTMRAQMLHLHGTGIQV
DAPK1, sequence (P53355 whole entry): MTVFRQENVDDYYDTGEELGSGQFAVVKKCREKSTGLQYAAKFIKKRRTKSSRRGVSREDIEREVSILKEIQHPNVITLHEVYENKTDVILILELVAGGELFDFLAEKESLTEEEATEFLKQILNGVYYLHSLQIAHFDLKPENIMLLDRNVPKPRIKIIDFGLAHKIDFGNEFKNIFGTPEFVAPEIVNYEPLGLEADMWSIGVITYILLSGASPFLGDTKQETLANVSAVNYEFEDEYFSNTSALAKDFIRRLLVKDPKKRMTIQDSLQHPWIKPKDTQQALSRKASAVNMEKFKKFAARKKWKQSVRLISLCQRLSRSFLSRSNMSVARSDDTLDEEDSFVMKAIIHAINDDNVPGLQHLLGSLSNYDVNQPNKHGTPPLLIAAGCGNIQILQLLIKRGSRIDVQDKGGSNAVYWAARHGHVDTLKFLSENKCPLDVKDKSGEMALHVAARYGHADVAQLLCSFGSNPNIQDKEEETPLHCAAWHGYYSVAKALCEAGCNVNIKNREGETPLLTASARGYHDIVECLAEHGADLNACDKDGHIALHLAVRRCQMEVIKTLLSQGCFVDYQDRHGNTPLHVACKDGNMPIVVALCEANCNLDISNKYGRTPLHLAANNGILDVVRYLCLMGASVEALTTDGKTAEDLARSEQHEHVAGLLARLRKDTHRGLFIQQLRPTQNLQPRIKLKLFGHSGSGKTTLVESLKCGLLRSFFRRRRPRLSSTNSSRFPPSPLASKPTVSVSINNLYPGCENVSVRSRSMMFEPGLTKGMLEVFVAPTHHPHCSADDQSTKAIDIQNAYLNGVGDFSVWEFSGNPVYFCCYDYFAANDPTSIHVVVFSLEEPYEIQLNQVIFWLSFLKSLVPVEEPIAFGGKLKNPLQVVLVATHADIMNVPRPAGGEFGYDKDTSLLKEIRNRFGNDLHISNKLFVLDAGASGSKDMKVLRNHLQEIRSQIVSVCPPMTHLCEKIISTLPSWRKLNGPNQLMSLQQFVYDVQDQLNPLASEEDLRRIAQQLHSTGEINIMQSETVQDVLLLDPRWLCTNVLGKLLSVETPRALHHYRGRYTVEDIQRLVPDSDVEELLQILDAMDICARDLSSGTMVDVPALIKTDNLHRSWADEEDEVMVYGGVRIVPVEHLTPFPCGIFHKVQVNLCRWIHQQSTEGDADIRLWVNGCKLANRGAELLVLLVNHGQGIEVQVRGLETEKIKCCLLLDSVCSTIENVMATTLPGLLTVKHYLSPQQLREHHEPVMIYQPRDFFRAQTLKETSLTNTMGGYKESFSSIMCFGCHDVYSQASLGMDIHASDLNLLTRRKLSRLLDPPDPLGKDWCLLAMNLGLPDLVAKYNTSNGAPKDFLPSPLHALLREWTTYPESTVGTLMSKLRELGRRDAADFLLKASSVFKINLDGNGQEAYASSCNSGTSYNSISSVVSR
JNK1, sequence (P45983 whole entry): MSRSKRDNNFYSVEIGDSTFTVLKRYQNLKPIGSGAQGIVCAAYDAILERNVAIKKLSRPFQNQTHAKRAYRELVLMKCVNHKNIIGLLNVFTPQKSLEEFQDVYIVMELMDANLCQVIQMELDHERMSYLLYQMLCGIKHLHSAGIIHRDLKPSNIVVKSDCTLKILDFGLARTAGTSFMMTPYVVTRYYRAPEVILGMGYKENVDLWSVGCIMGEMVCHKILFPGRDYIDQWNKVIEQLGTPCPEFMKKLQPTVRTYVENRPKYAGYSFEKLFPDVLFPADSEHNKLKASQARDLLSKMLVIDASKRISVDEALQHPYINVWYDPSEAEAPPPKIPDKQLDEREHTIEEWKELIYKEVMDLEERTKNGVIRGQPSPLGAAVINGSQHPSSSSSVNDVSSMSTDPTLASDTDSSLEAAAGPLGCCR

ΔTm at 10 µM (CK2a1; read-out: dTm 6): 0.2 °C
ΔTm at 10 µM (LOK; read-out: dTm 6): 2.4 °C
ΔTm at 10 µM (CK1d; read-out: dTm 6): 0.9 °C
ΔTm at 10 µM (JNK1; read-out: dTm 6): 0.2 °C
ΔTm at 10 µM (EpHA2; read-out: dTm 6): 6.7 °C
ΔTm at 10 µM (MER; read-out: dTm 6): 0.1 °C
ΔTm at 10 µM (PIM3; read-out: dTm 6): -0.4 °C
ΔTm at 10 µM (MAP2K6; read-out: dTm 6): 1.4 °C
ΔTm at 10 µM (DAPK1; read-out: dTm 6): -0.2 °C
ΔTm at 10 µM (BRD4; read-out: dTm 6): -0.1 °C
ΔTm at 10 µM (CHK2; read-out: dTm 6): 0.4 °C
ΔTm at 10 µM (DAPK3; read-out: dTm 6): -0.2 °C
ΔTm at 10 µM (EpHA5; read-out: dTm 6): 4.5 °C
ΔTm at 10 µM (EphA7; read-out: dTm 6): 2.7 °C
ΔTm at 10 µM (MARK3; read-out: dTm 6): 3.5 °C
Compound: CNc1ncc2cc(-c3cc(Br)ccc3Cl)c(=O)n(CCCCN)c2n1 [compound 6, 8-(4-Aminobutyl)-6-(5-bromo-2-chlorophenyl)-2-(methylamino)pyrido[2,3-d]pyrimidin-7(8H)-one]

ΔTm at 10 µM (CK2a1; read-out: dTm 7): 0.4 °C
ΔTm at 10 µM (LOK; read-out: dTm 7): 2.1 °C
ΔTm at 10 µM (CK1d; read-out: dTm 7): -0.1 °C
ΔTm at 10 µM (JNK1; read-out: dTm 7): 0.9 °C
ΔTm at 10 µM (EpHA2; read-out: dTm 7): 4.8 °C
ΔTm at 10 µM (MER; read-out: dTm 7): 0.2 °C
ΔTm at 10 µM (PIM3; read-out: dTm 7): 0.9 °C
ΔTm at 10 µM (MAP2K6; read-out: dTm 7): 0.9 °C
ΔTm at 10 µM (DAPK1; read-out: dTm 7): 0.1 °C
ΔTm at 10 µM (BRD4; read-out: dTm 7): 0.9 °C
ΔTm at 10 µM (CHK2; read-out: dTm 7): 0.2 °C
ΔTm at 10 µM (DAPK3; read-out: dTm 7): -0.4 °C
ΔTm at 10 µM (EpHA5; read-out: dTm 7): 3.2 °C
ΔTm at 10 µM (EphA7; read-out: dTm 7): -0.5 °C
ΔTm at 10 µM (MARK3; read-out: dTm 7): 1.7 °C
Compound: CNc1ncc2cc(-c3cc(Br)ccc3Cl)c(=O)n(C[C@H]3OC[C@H](N)CO3)c2n1 [compound 7, 8-(((2r,5r)-5-Amino-1,3-dioxan-2-yl)methyl)-6-(5-bromo-2-chlorophenyl)-2-(methylamino)pyrido[2,3-d]pyrimidin-7(8H)-one]

More lines, now with the values behind:

Compound: CNc1ncc2cc(-c3cc(F)ccc3F)c(=O)n(CCCCN)c2n1 [compound 5, 8-(4-Aminobutyl)-6-(2,5-difluorophenyl)-2-(methylamino)pyrido[2,3-d]pyrimidin-7(8H)-one]
ΔTm at 10 µM (CK2a1; read-out: dTm MR22 (5)): 0.4 °C
ΔTm at 10 µM (LOK; read-out: dTm MR22 (5)): -0.4 °C
ΔTm at 10 µM (CK1d; read-out: dTm MR22 (5)): 1.3 °C
ΔTm at 10 µM (JNK1; read-out: dTm MR22 (5)): 5.5 °C
ΔTm at 10 µM (EpHA2; read-out: dTm MR22 (5)): 6.5 °C
ΔTm at 10 µM (MER; read-out: dTm MR22 (5)): -0.8 °C
ΔTm at 10 µM (PIM3; read-out: dTm MR22 (5)): -0.6 °C
ΔTm at 10 µM (MAP2K6; read-out: dTm MR22 (5)): 1 °C
ΔTm at 10 µM (DAPK1; read-out: dTm MR22 (5)): -0.7 °C
ΔTm at 10 µM (BRD4; read-out: dTm MR22 (5)): -2.8 °C
ΔTm at 10 µM (CHK2; read-out: dTm MR22 (5)): 0.4 °C
ΔTm at 10 µM (DAPK3; read-out: dTm MR22 (5)): 0.5 °C
ΔTm at 10 µM (EphA7; read-out: dTm MR22 (5)): -1.6 °C
ΔTm at 10 µM (MARK3; read-out: dTm MR22 (5)): 1.1 °C

Compound: CNc1ncc2cc(-c3ccc(-c4cccc(C)n4)cc3Cl)c(=O)n(CC3OCC(N)CO3)c2n1 (stereo not shown) [compound 2, G-5555]
dTm G-5555 (2) (CK2a1; 10 µM, binder): 0.1 °C
dTm G-5555 (2) (LOK; 10 µM, binder): 10.2 °C
dTm G-5555 (2) (CK1d; 10 µM, binder): 0.4 °C
dTm G-5555 (2) (EpHA2; 10 µM, binder): 2.2 °C
dTm G-5555 (2) (MER; 10 µM, binder): 0.8 °C
dTm G-5555 (2) (PIM3; 10 µM, binder): -1.8 °C
dTm G-5555 (2) (MAP2K6; 10 µM, binder): 4.4 °C
dTm G-5555 (2) (DAPK1; 10 µM, binder): -1.0 °C
dTm G-5555 (2) (BRD4; 10 µM, binder): -1.1 °C
dTm G-5555 (2) (CHK2; 10 µM, binder): 0.9 °C
dTm G-5555 (2) (DAPK3; 10 µM, binder): 0.5 °C
dTm G-5555 (2) (EpHA5; 10 µM, binder): 2.7 °C
dTm G-5555 (2) (EphA7; 10 µM, binder): 4.1 °C
dTm G-5555 (2) (MARK3; 10 µM, binder): 8.8 °C

Compound: CNc1ncc2cc(-c3ccccc3Cl)c(=O)n(CCCCN)c2n1 [compound 4, 8-(4-Aminobutyl)-6-(2-chlorophenyl)-2-(methylamino)pyrido[2,3-d]pyrimidin-7(8H)-one]
ΔTm at 10 µM (CK2a1; read-out: dTm MR21 (4)): -0.4 °C
ΔTm at 10 µM (LOK; read-out: dTm MR21 (4)): 5.4 °C
ΔTm at 10 µM (CK1d; read-out: dTm MR21 (4)): 2.9 °C
ΔTm at 10 µM (JNK1; read-out: dTm MR21 (4)): 0.9 °C
ΔTm at 10 µM (MER; read-out: dTm MR21 (4)): 2.8 °C
ΔTm at 10 µM (PIM3; read-out: dTm MR21 (4)): -0.8 °C
ΔTm at 10 µM (MAP2K6; read-out: dTm MR21 (4)): 3.1 °C
ΔTm at 10 µM (DAPK1; read-out: dTm MR21 (4)): -0.2 °C
ΔTm at 10 µM (BRD4; read-out: dTm MR21 (4)): 0.1 °C
ΔTm at 10 µM (CHK2; read-out: dTm MR21 (4)): 0.9 °C
ΔTm at 10 µM (EphA7; read-out: dTm MR21 (4)): 1.8 °C
ΔTm at 10 µM (MARK3; read-out: dTm MR21 (4)): 5.3 °C
